Key:
DLD-1 BRCA2(−/−) = experiment: Cell growth inhibition assay (CellTiter-Glo cell viability, 7 days); assay type: cell-based; settings: Homo sapiens, 168 h, DLD-1 BRCA2(-/-) cells
[1] = test system: MDA-MB-436 (mutated BRCA1) cell lines; experiment: as above; assay type: cell-based; settings: Homo sapiens, 168 h, MDA-MB-436 cells

| Compound | EC50 (DLD-1 BRCA2(−/−)) [nM] | EC50 [1] [nM] |
| --- | --- | --- |
| Cc1c(Cl)c(=O)[nH]c2cc(CN3CCN(c4ccc(C(=O)NC5CC5)nc4)CC3)cnc12 [Example 154] | 3 | 1.6 |
| CCc1cc2ncc(CN3CCN4c5ccc(C(=O)NC)nc5OC[C@@H]4C3)cc2[nH]c1=O [Example 22B, (10S)-12-[(7-ethyl-6-oxo-5H-1,5-naphthyridin-3-yl)methyl]-N-methyl-8-oxa-1,6,12-triazatricyclo[8.4.0.0^{2,7}]tetradeca-2,4,6-triene-5-carboxamide] | 490 | 160 |
| CCc1cc2ncc(CN3CCN(c4ccc(C(=O)NC)nc4C#N)[C@H]4C[C@H]43)cc2[nH]c1=O (single isomer, unassigned) [Example 76] | 1.6 | 0.98 |
| Cc1cc2ncc(CN3CCN(c4cccnc4C#N)CC3)cc2[nH]c1=O [Example 131] | 11 | 6.2 |
| CNC(=O)c1ccc(N2CCN(Cc3cnc4c(C)c(Cl)c(=O)[nH]c4c3)CC2)c(F)n1 [Example 156] | 0.68 | 0.39 |
| CNC(=O)c1ccc(N2CCN(Cc3cnc4cc(Cl)c(=O)[nH]c4c3)CC2)cn1 [Example 138, 5-{4-[(7-chloro-6-oxo-5H-1,5-naphthyridin-3-yl)methyl]piperazin-1-yl}-N-methylpyridine-2-carboxamide] | 2.7 | 2.1 |
| CCc1cc2ncc(CN3CCN(c4ccc(C(=O)NC)nn4)CC3)cc2[nH]c1=O [Example 61] | 6.3 | 4.8 |
| CCc1cc2ncc(CN3CCN(c4ccc(C(=O)NC(C)C)nc4)CC3)cc2[nH]c1=O [Example 43] | 2.4 | 3.2 |
| O=C(NC1CC1)c1ccc(N2CCN(Cc3cnc4cc(C5CC5)c(=O)[nH]c4c3)[C@H]3C[C@H]32)cn1 (single isomer, unassigned) [Example 112] | 7.8 | 3.3 |
| CCc1cc2ncc(CN3CCN(c4ccc(C(=O)NCC(C)(C)O)nc4)CC3)cc2[nH]c1=O [Example 52] | 12 | 4 |
| CCc1cc2ncc(CN3CCN(c4ccc(C(=O)NC)c(=O)n4C)[C@@H]4C[C@@H]43)cc2[nH]c1=O (single isomer, unassigned) [Example 114] | 11 | 5.1 |
| CCc1cc2ncc(CN3CC(N(C)c4ccc(C(=O)NC)nc4)C3)cc2[nH]c1=O [Example 26, 5-({1-[(7-ethyl-6-oxo-5H-1,5-naphthyridin-3-yl)methyl]azetidin-3-yl}(methyl)amino)-N-methylpyridine-2-carboxamide] | 33 | 39 |
| CCc1cc2ncc(CN3CCN(c4ccc(C(=O)NC[C@@H]5CCOC5)nc4)CC3)cc2[nH]c1=O [Example 40] | 6.7 | 4.4 |
| CCc1cc2ncc(CN3CCN(c4cc(F)ccc4C#N)CC3)cc2[nH]c1=O [Example 132] | 6.7 | 4.4 |
| CNC(=O)c1ccc(N2CCN([C@H](C)c3cnc4cc(C)c(=O)[nH]c4c3)CC2)cn1 (single isomer, unassigned) [Example 125] | 8.5 | 13 |
| CNC(=O)c1ccc(N2CCN(Cc3cnc4cc(C)c(=O)[nH]c4c3)[C@H]3C[C@H]32)c(C#N)n1 (single isomer, unassigned) [Example 98] | 2 | 1.2 |
| CNC(=O)c1ccc(N2CCN([C@@H](C)c3cnc4cc(C)c(=O)[nH]c4c3)CC2)cn1 (single isomer, unassigned) [Example 124] | 7.5 | 17 |
| CCNC(=O)c1ccc(N2CCN(Cc3cnc4cc(C5CC5)c(=O)[nH]c4c3)CC2)cn1 [Example 137] | 2.1 | 1.3 |
| CCc1cc2ncc(CN3CCN(c4ccc(C(=O)N[C@H]5C[C@@](C)(O)C5)nc4)CC3)cc2[nH]c1=O [Example 45] | 16 | 4.3 |
| CCc1cc2ncc(CN3CCN(c4ccc(C(=O)NC)c(F)c4C#N)CC3)cc2[nH]c1=O [Example 145] | 1.9 | 1.1 |
| CCc1cc2ncc(CN3CCN(c4ccc(C(=O)NC5CC5)nc4)[C@@H]4C[C@@H]43)cc2[nH]c1=O (single isomer, unassigned) [Example 111] | 4.6 | 1.8 |
| CCc1cc2ccc(CN3CCN(c4ccc(C(=O)NC)nc4F)CC3)nc2[nH]c1=O [Example 150] | 18 | 9 |
| CCc1cc2ncc(CN3CCC(c4cnc(C(=O)NC)c(F)c4)CC3)cc2[nH]c1=O [Example 23, 5-{1-[(7-ethyl-6-oxo-5H-1,5-naphthyridin-3-yl)methyl]piperidin-4-yl}-3-fluoro-N-methylpyridine-2-carboxamide] | 6 | 2.2 |
| [2H]C([2H])([2H])NC(=O)c1ccc(N2CCN(Cc3cnc4cc(C5CC5)c(=O)[nH]c4c3)[C@H]3C[C@H]32)cn1 (single isomer, unassigned) [Example 107] | 9.1 | 2.5 |
| CCc1cc2ncc(CN3CCN(c4ccccn4)CC3)cc2[nH]c1=O [Example 82, 3-ethyl-7-{[4-(pyridin-2-yl)piperazin-1-yl]methyl}-1H-1,5-naphthyridin-2-one] | 10 | 7.8 |
| CNC(=O)c1ccc(N2CCN(Cc3cnc4cc(C)c(=O)[nH]c4c3)CC2)c(C#N)n1 [Example 37] | 1.4 | 0.5 |
| [2H]C([2H])([2H])C([2H])([2H])NC(=O)c1ccc(N2CCN(Cc3cnc4cc(C5CC5)c(=O)[nH]c4c3)CC2)cn1 [Example 119] | 1.8 | 0.99 |

| Compound | EC50 (DLD-1 BRCA2(−/−)) [nM] | EC50 [1] [nM] |
| --- | --- | --- |
| CCc1cc2ncc(CN3CCN(c4cc(F)c(C(=O)NC)cn4)CC3)cc2[nH]c1=O [Example 51] | 17 | 6.4 |
| CNC(=O)c1ccc2c(n1)OC[C@@H]1CN(Cc3cnc4cc(C)c(=O)[nH]c4c3)CCN21 [Example 77] | 8.5 | 5.8 |
| [2H]C([2H])(c1cnc2cc(C3CC3)c(=O)[nH]c2c1)N1CCN(c2ccc(C(=O)NC3CC3)nc2)CC1 [Example 117] | 2.1 | 1.2 |
| CCc1cc2nc(C#N)c(CN3CCN(c4ccc(C(=O)NC)nc4)CC3)cc2[nH]c1=O [Example 141] | 6.4 | 4.1 |
| CCc1cc2ncc(CN3CCN(c4ccc(C(=O)NC5COC5)nc4)[C@@H]4C[C@@H]43)cc2[nH]c1=O (single isomer, unassigned) [Example 88] | 4.2 | 3.8 |
| CNC(=O)c1ccc(N2CCN([C@@H](C)c3cnc4cc(C)c(=O)[nH]c4c3)C[C@H]2C)cn1 (single isomer, unassigned) [Example 121] | 43 | 35 |
| CCc1cc2ncc(CN3CCN(c4ccc(C(=O)NC5CCOCC5)nc4)CC3)cc2[nH]c1=O [Example 44] | 7.4 | 5.3 |
| CNC(=O)c1ccc(N2CCN(Cc3cnc4cc(C5CC5)c(=O)[nH]c4c3)C[C@H]2C)cn1 [Example 74] | 7.8 | 3.9 |
| N#CC12CC(N3CCN(Cc4cnc5cc(Cl)c(=O)[nH]c5c4)CC3)(C1)C2 [Example 157] | 61 | 41 |
| CCc1cc2ncc(CN3CCN(c4cnc(C(=O)NC)c(F)c4)[C@H]4C[C@H]43)cc2[nH]c1=O (single isomer, unassigned) [Example 69] | 7.3 | 4.4 |
| CCc1cc2ncc(CN3CCN(c4cccnc4C#N)CC3)cc2[nH]c1=O [Example 128, 3-{4-[(7-ethyl-6-oxo-5H-1,5-naphthyridin-3-yl)methyl]piperazin-1-yl}pyridine-2-carbonitrile] | 4.8 | 4.2 |
| CNC(=O)c1ccc(N2CCN([C@H](C)c3cnc4cc(C)c(=O)[nH]c4c3)C[C@H]2C)cn1 (single isomer, unassigned) [Example 122] | 46 | 11 |
| CNC(=O)c1ccc(N2CCN(Cc3cnc4c(C(F)F)c(C)c(=O)[nH]c4c3)CC2)cn1 [Example 151] | 16 | 28 |
| CCc1cc2ncc(CN3CCN(c4ccc(C(=O)N[C@@H]5CCCOC5)nc4)CC3)cc2[nH]c1=O (single isomer, unassigned) [Example 54] | 2.8 | 1 |
| O=C(NC1COC1)c1ccc(N2CCN(Cc3cnc4cc(C5CC5)c(=O)[nH]c4c3)CC2)cn1 [Example 81] | 5.9 | 4.5 |
| CNC(=O)c1ccc(C2=CCN(Cc3cnc4cc(C5CC5)c(=O)[nH]c4c3)CC2)cn1 [Example 64] | 0.92 | 0.64 |
| CCc1cc2ccc(CN3CCN(c4ccc(C(=O)NC)c(=O)n4C)CC3)cc2[nH]c1=O [Example 89] | 3.5 | 2.5 |
| [2H]C([2H])(c1cnc2cc(C3CC3)c(=O)[nH]c2c1)N1CCN(c2ccc(C(=O)NC)nc2)CC1 [Example 115] | 1.9 | 1.3 |
| CCc1cc2ncc(CN3CCN(c4ccc(C(=O)NC5CC5)nc4C#N)CC3)cc2[nH]c1=O [Example 139] | 1.5 | 0.77 |
| CNC(=O)c1ccc(N2CCN(Cc3cnc4cc(C)c(=O)[nH]c4c3)[C@H]3C[C@H]32)cn1 (single isomer, unassigned) [Example 99] | 16 | 11 |
| CNC(=O)c1ccc(N2CCN(Cc3cnc4cc([C@@H]5CC5(F)F)c(=O)[nH]c4c3)CC2)cn1 (single isomer, unassigned) [Example 143] | 13 | 12 |
| CCc1cc2ncc(CN3CCN(c4ccncn4)CC3)cc2[nH]c1=O [Example 106] | 5.7 | 6.6 |
| CNC(=O)c1ccc(N2CCN(Cc3cnc4cc(C)c(=O)[nH]c4c3)CC2)c(C#N)c1 [Example 38] | 7.6 | 5.3 |
| Cc1cc2ncc(CN3CCN(c4cnc(C(=O)NC5CC5)c(F)c4)CC3)cc2[nH]c1=O [Example 108] | 31 | 14 |
| CCc1cc2ncc([C@H](C)N3CCN(c4ccc(C(=O)NC)nc4)CC3)cc2[nH]c1=O (single isomer, unassigned) [Example 21] | 1.7 | 0.9 |
| CCc1cc2ncc([C@@H](C)N3CCN(c4ccc(C(=O)NC)nc4)CC3)cc2[nH]c1=O (single isomer, unassigned) [Example 20] | 4.1 | – |

Reference: patent publication US11591331B2, “PARP1 inhibitors and uses thereof” (Xinthera, Inc., priority 2021, dated 2023)
